Active and inactive are the calls of the source. No cut-off for these calls is given here.
What follows are compounds tested on Vaccinia virus (assay: Antiviral activity against Vaccinia virus infected in human skin fibroblasts assessed as inhibition of virus-induced cytopathogenicity). Settings: Orthopoxvirus vaccinia.
Type: functional, organism-based

| Compound | inhibition |
| --- | --- |
| O=c1[nH]c(=O)n([C@@H]2O[C@H](CO)[C@@H](O)[C@@H]2O)cc1[N+](=O)[O-] | Active |
| N#Cc1cn([C@@H]2O[C@H](CO)[C@@H](O)[C@@H]2O)c(=O)[nH]c1=O | Active |
| O=c1ccn([C@@H]2O[C@H](CO)[C@@H](O)[C@@H]2O)c(=O)[nH]1 [ARAURIDINE] | Active |
| Cc1cn([C@@H]2O[C@H](CO)[C@@H](O)[C@@H]2O)c(=O)[nH]c1=O | Active |
| O=c1[nH]c(=O)n([C@@H]2O[C@H](CO)[C@@H](O)[C@@H]2O)cc1O | Active |

— ChEMBL document CHEMBL3227984, “5-Substituted uracil arabinonucleosides as potential antiviral agents” (J Med Chem, 1979)
